Reference: US20040170601A1, “Method of improving the growth performance of an animal” (priority 2001, published 2004)
“Also recorded” adds a separate entry of the source.

Tests used:
[1] = system: Brachyspira (Serpulina) hyodysenteriae; test: Example 13: swine dysentery challenge, IL-4 prophylactic; type: in vivo, pigs
Description: (§1) The aim of this example was to determine whether IL-4 could improve the health of pigs infected with an enteric inflammatory pathogen causing swine dysentery, Brachyspira (Serpulina) hyodysenteriae. A further aim was to determine whether IL-4 could improve the growth rate of pigs under conditions of challenge with swine dysentery.
(§2) Male pigs with a mean starting weight of 6.5 kg, were allocated to treatment groups consisting of eight pigs (Table 10). Pigs were housed in group pens, with each pen containing a replicate from each of the treatment groups. One group of 8 pigs was housed in a separate room and left uninfected to act as untreated controls. Pigs were provided with pelleted feed and water ad libitum.
(§3) Prior to swine dysentery challenge, pigs were treated with recombinant IL-4 or saline, as described in Table 10. Cytokines and the antibiotic, Lincocin, were delivered by intramuscular injection at intervals outlined in Table 11. Pigs were infected with Brachyspira hyodysenteriae at day 0, day 1 and day 2, given as an oral bolus of 120ml of spirochaete culture in log phase of growth, containing approximately […] cells.
(§4) Faecal swabs and blood samples were taken from each pig at intervals described in Table 11. Faecal swabs were cultured for the presence of spirochaetes. Blood samples were assayed for immunological parameters as described in example 1 above. Pigs were weighed at weekly intervals throughout the experiment, which was terminated by euthanasia on days 19 and 20 after the initial challenge. At post mortem swabs from areas of the hindgut were cultured for the presence of spirochaetes, and the gross pathological condition of the gastro-intestinal tissue noted.

[2] = system: Brachyspira (Serpulina) hyodysenteriae; test: Example 7: swine dysentery challenge, IL-5 prophylactic; type: in vivo, pigs
Description: as §1, with “One” for “The”, “IL-5” for “IL-4”
as §2, with “6).” for “10).”
as §3, with “IL-5” for “IL-4”, “6.” for “10.”, “Lincomycin,” for “Lincocin,”, “7.” for “11.”, “120 ml” for “120ml”
as §4, with “7.” for “11.”

[3] = cited from earlier work
haemorrhagic E. coli = test: Example 6: haemorrhagic E. coli challenge of weaner pigs; type: in vivo; design: decrease in faecal shedding (total faecal culture scores) compared to saline treated controls / reduction in clinical signs compared to saline controls / reduction in E. coli culture scores at post-mortem compared to saline controls / reduction of bacterial load in the small intestine (foregut) compared with saline controls: concentration or dose not given beside the values
Procedure: Male weaner pigs, with a mean weight of 5.4 kg were allocated to groups of 8, with the mean weight being equalised between groups. Pigs were housed in group pens. Pigs were provided with pelleted feed and water ad libitum.
Pigs were treated with cytokines or the antibiotic, Apralan, and challenged with E. coli according to the schedule outlined in FIG. 42. E. coli were delivered orally in an 8 ml dose containing 10^8 cfu/ml. Blood was sampled from pigs by venipuncture at −2 days, day 0, and +6 days from initial challenge with E. coli as outlined in FIG. 42. Blood was assayed for immunological parameters as previously described. Pigs were weighed at day −2 and at the end of the trial on day 7.
Faecal samples were taken from each pig daily from day 2 to day 6 after challenge; these samples were cultured on sheep blood agar to quantify E. coli load. The condition of faeces on each day of challenge was noted as normal, wet or diarrhoea, as an indication of clinical signs.
At the conclusion of the experiment, pigs were euthanased and samples were taken from different areas in the gastro-intestinal tract, including the small intestine (25%, 50% and 75% along the length of the small intestine), the caecum and colon, and from the faeces. These post-mortem samples were also plated out on sheep blood agar to quantify E. coli load. Growth on sheep blood agar was scored from 0 to 5 (where 0 was no growth, 1 signified growth in the primary inoculum, 2 signified growth in the first streak, 3 signified growth in the 2nd streak, 4 signified growth in the 3rd streak, and 5 signified growth of E. coli in the final streak), and group means and standard errors were calculated.

[4] = system: Actinobacillus pleuropneumoniae; test: Example 12: Actinobacillus pleuropneumoniae (App) challenge: growth, clinical signs, lung pathology; type: in vivo, pigs
Description: The following experiment was designed to determine whether IL-4 could improve the growth of immunologically challenged pigs compared to saline treated controls and positive controls treated with the non-steroidal anti-inflammatory drug (NSAID) Flunix. It was also devised to determine whether IL-4 could be delivered via plasmids.
Male pigs, with a mean starting weight of 52 kg, were allocated to 5 treatment groups (Table 8). Pigs were housed in group pens, with each pen containing a replicate from each of the treatment groups. Pigs were provided with pelleted feed and water ad libitum.
Recombinant IL-4 and saline were administered as 2 ml doses, given subcutaneously behind the ear. Plasmids were administered in 1 ml doses, given intramuscularly in the hind-leg. Flunix was administered as a 2 ml dose according to the manufacturer's instructions, and delivered intramuscularly in the neck. The timetable of administration is outlined in Table 9 below.
(§5) Due to the intermittent availability of Actinobacillus pleuropneumoniae (App), the App challenge was performed separately on the 2 rooms, resulting in different time schedules for each room, as outlined in Table 9. Prior to each challenge, pigs were treated with recombinant cytokines, flunix or plasmids as described above; the timing of treatments with respect to challenge is described in Table 9. Pigs were anaesthetised and infected intratracheally with 7.5×10^5 […] on day 0.
(§6) Briefly, assays were performed on blood samples using standard techniques, including: white blood cell counts performed using an automated cell counter; differential cell counts performed manually on stained blood smears; lymphocyte subset enumeration via flow cytometry; neutrophil function determined by flow cytometry; lymphocyte proliferation determined using a thymidine incorporation assay in response to mitogens; total IgG and IgA levels were identified using indirect sandwich ELISA; levels of mRNA for pro-inflammatory cytokines was detected by RT-PCR. TNF levels were additionally measured in serum by bioassay using L929 target cells. Pigs were weighed weekly from delivery of plasmids and for 2 weeks after challenge.
IL-4 delivered as a recombinant caused a reduction of 36% in the presence of clinical symptoms compared to pigs treated with saline, while IL-4 delivered in plasmid form produced a reduction of 62% compared to saline-treated controls (45% reduction compared to plasmid-treated controls).
At the conclusion of the trial, pigs were euthanased and the lungs removed for post-mortem examination. Lungs were scored for pleurisy from 0-5 (FIG. 79) and the degree of pleuropneumonia was determined by weighing affected lung and expressed as a percentage of total lung weight (FIG. 80).

TNFα = test: Example 12: TNFα in serum after App challenge (bioassay, L929 target cells); type: in vivo, pigs; conditions: day 13 after challenge
Procedure: as §5
[…] Blood was assayed for immunological parameters as previously described.
as §6

## CCC[C@@H]1C[C@@H](C(=O)N[C@@H]([C@H]2O[C@H](SC)[C@H](O)[C@@H](O)[C@H]2O)[C@@H](C)O)N(C)C1 [Lincocin, Lincomycin, reference compound]
[1]; after challenge
  spirochaete shedding in faeces (faecal culture): no signs of faecal spirochaete shedding by day 14
[1]; anterior colon, post mortem
  gross pathology associated with dysentery: reduced the incidence of pathological symptoms in anterior and posterior colon
[1]; day 7 prior to challenge to slaughter at days 19 and 20
  total weight gained over the challenge period: 6.9 kg
[1]; days 19 and 20 after infection
  mean weight at the end of the trial: 12.2 kg
[1]; post mortem
  incidence of clinical signs in faeces (of 8 pigs): one
[1]; posterior colon, post mortem
  gross pathology associated with dysentery: reduced the incidence of pathological symptoms in anterior and posterior colon
[2]; after challenge
  spirochaete shedding in faeces (faecal culture): no signs of faecal spirochaete shedding by day 14
[2]; anterior colon, post mortem
  reduction in the number of spirochaetes compared to saline treated pigs: 89%
[2]; caecum, post mortem
  reduction in the number of spirochaetes compared to saline treated pigs: 93%
[2]; faecal, post mortem
  reduction in the number of spirochaetes compared to saline treated pigs: 100%
[2]; post mortem
  incidence of clinical signs in faeces (of 8 pigs): one
[2]; posterior colon, post mortem
  reduction in the number of spirochaetes compared to saline treated pigs: 88%

## CC(=O)OC/C=C(C)/C=C/C=C(C)/C=C/C1=C(C)CCCC1(C)C [Retinyl acetate]
[3]; mice fed low-protein diet, 1 mg
  IL-5 level and IL-4- and IL-5-containing cells in small intestinal mucosa: significantly restored the IL-5 level and the number of IL-4- and IL-5-containing cells
[3]; mouse, in vivo
  anti-CT IgA level in intestinal mucosa: prevented the decline of anti-CT IgA level in the protein-deficient mice

## CN[C@@H]1[C@@H](O[C@H]2O[C@H](CO)[C@@H](N)[C@H](O)[C@H]2O)OC2C[C@@H](N)[C@@H](O[C@H]3[C@H](O)[C@@H](O)[C@H](N)C[C@@H]3N)OC2[C@@H]1O (stereo partly drawn) [Apralan, reference compound]
Haemorrhagic E. coli; 5 days after challenge
  clinical signs (wet faeces or diarrhoea): less recordings of wet faeces than did saline controls, but also displayed a minor increase in the prevalence of diarrhoea
Haemorrhagic E. coli; day 2 to day 6 after challenge
  E. coli shedding in faeces (faecal culture): decreased E. coli shedding in faeces; also recorded: least bacterial shedding of all treatments
Haemorrhagic E. coli; entire challenge period
  decrease in faecal shedding (total faecal culture scores) compared to saline treated controls: 80%
Haemorrhagic E. coli; pig, in vivo
  appetite (daily feed intake per pig) during E. coli challenge: improved appetite compared to saline treated pigs
  bacterial load in areas of the gastro-intestinal tract at post-mortem: reduced bacterial load in most areas of the gastro-intestinal tract
  group mean total E. coli culture score at post-mortem (out of a possible 30): 12
  reduction in clinical signs compared to saline controls: 27%
Haemorrhagic E. coli; post-mortem
  bacterial loads in the hindgut area (caecum and colon): lowest of all treatments
  reduction of bacterial load in the small intestine (foregut) compared with saline controls: 32%

## CNC[C@H](O)[C@@H](O)[C@H](O)[C@H](O)CO.Cc1c(Nc2ncccc2C(=O)O)cccc1C(F)(F)F [flunix, reference compound]
[4]; pig, in vivo
  growth during the (first) week of App challenge: weight loss
  growth in the second week of challenge: poorest growth of all groups in the second week of challenge
  pleurisy at necropsy (score 0-5): less pleurisy than the saline controls
  weight gain over the 2 week period following challenge with App: lowest growth over the 2 week challenge period
[4]; pig, in vivo, listed as Flunix
  weight gain over the 2 week period following challenge with App: poorest performing treatment in terms of growth
[4]; vs saline-treated controls
  percentage of lung affected by App lesions: greatly reduced
TNFα
  TNFα production (serum): failed to inhibit the production of TNFα
